Consider four compounds from publication PMC3914206.

What all share (assay type): binding
What all share (set-up): KINOMEscan: ABL1(F317L)-phosphorylated / KINOMEscan: ABL1(H396P)-nonphosphorylated / KINOMEscan: ABL1(H396P)-phosphorylated / KINOMEscan: ABL1(M351T)-phosphorylated / KINOMEscan: ABL1(T315I)-phosphorylated / KINOMEscan: ABL1-nonphosphorylated / KINOMEscan: ABL1-phosphorylated / KINOMEscan: ACVR2A / KINOMEscan: ACVR2B / KINOMEscan: ADCK3 / KINOMEscan: ADCK4 / KINOMEscan: AKT1 / KINOMEscan: AKT3 / KINOMEscan: ALK / KINOMEscan: ARK5 / KINOMEscan: AURKA / KINOMEscan: AURKC / KINOMEscan: BIKE / KINOMEscan: BMPR1A / KINOMEscan: BMPR1B / KINOMEscan: BMX / KINOMEscan: BRK / KINOMEscan: BRSK1 / KINOMEscan: BRSK2 / KINOMEscan: CAMK1 / KINOMEscan: CAMK1D / KINOMEscan: CAMK1G / KINOMEscan: CAMK2A / KINOMEscan: CAMK2B / KINOMEscan: AAK1 / KINOMEscan: CAMK2D / KINOMEscan: CAMK2G / KINOMEscan: ABL1(F317I)-nonphosphorylated / KINOMEscan: ABL1(F317I)-phosphorylated / KINOMEscan: ABL1(F317L)-nonphosphorylated: unit: % Ctrl

Experiment [1] has as its target T1, panel of 442 kinases (Homo sapiens, UniProt O43318).
T1 construct: purchased KINOMEscan
T1 sequence (O43318 1-606): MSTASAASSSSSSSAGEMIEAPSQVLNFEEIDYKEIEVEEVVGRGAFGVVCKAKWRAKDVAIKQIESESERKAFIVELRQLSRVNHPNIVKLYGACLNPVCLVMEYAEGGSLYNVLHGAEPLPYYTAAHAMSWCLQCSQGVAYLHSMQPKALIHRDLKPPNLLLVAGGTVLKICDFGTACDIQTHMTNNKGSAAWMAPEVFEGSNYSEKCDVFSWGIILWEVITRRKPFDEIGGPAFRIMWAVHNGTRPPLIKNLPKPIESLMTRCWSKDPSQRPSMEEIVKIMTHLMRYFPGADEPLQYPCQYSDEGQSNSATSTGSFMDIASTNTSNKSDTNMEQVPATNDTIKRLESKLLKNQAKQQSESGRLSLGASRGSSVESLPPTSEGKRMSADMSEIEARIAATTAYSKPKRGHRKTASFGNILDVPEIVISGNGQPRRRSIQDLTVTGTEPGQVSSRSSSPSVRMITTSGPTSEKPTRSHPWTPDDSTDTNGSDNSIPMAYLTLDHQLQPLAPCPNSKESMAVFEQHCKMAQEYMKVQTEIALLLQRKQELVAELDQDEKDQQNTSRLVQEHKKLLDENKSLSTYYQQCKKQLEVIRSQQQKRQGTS
Conditions: kinase TAK1; compound concentration 10 µM. The text has this: (§1) We assessed the selectivity of members of this scaffold using the KINOMEscan methodology across a near comprehensive panel of 442 kinases [[18,27]].

Experiment [2] concerns the target T2, panel of 442 kinases (Homo sapiens, UniProt Q13705).
T2 construct: purchased KINOMEscan
As to conditions: Compound Concentration 10 µM.
Text: as §1

The target in experiment [3] is T3, panel of 442 kinases (Homo sapiens, UniProt Q86Z02).
T3 construct: purchased KINOMEscan
Conditions: Compound Concentration 10 µM.
Text: as §1

T2 sequence (Q13705 19-512): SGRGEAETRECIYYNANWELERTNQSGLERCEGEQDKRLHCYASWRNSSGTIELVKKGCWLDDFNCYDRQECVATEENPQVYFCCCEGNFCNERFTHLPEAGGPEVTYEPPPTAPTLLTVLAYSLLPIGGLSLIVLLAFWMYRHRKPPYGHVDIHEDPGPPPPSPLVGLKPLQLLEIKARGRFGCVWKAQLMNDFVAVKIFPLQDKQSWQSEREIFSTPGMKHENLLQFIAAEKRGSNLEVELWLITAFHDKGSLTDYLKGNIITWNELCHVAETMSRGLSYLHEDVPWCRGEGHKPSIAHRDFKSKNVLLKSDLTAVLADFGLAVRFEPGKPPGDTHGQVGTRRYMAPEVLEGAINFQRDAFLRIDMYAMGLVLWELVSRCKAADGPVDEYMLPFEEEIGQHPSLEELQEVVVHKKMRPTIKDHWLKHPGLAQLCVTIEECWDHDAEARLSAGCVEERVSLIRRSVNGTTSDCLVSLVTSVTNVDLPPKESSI
T3 sequence (Q86Z02 whole entry): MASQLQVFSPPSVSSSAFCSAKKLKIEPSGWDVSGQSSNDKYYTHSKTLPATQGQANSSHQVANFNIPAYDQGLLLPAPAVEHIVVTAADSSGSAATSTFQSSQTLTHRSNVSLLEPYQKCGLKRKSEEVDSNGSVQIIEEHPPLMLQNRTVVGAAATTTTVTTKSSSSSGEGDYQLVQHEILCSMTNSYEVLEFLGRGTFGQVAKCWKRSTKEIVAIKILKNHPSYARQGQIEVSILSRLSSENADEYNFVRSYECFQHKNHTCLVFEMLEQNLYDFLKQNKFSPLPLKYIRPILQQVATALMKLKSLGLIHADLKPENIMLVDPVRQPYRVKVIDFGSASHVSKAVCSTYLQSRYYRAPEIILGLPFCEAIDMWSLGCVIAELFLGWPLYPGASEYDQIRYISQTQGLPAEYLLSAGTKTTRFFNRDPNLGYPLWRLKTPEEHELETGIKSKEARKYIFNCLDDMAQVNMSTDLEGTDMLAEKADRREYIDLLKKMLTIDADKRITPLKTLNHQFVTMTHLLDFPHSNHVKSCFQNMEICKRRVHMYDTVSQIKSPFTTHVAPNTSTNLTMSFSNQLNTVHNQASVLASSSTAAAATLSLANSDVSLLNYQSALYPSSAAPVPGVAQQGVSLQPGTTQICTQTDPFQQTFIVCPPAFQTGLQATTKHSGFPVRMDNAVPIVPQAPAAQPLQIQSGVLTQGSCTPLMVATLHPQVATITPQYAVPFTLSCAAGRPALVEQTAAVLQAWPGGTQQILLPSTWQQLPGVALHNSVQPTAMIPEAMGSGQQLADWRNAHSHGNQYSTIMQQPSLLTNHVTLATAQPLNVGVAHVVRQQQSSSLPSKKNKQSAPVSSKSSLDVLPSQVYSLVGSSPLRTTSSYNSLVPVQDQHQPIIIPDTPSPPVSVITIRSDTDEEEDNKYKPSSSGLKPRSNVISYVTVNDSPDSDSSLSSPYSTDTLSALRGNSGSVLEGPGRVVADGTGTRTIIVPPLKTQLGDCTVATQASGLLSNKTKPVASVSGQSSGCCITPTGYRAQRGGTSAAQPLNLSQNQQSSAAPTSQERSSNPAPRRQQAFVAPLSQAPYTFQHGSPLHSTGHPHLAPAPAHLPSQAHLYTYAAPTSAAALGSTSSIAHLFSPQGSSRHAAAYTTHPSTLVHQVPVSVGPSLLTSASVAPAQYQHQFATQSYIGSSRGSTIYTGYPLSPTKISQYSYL

On to `CCOc1cc(C(=O)N2CCC(N3CCN(C)CC3)CC2)ccc1Nc1ncc2c(n1)N(C1CCCC1)c1ccccc1C(=O)N2C` [Compound 26], for which the “% Ctrl, TAK1” value on panel of 442 kinases [1] was 100 % Ctrl. Also, the “KINOMEscan: ACVR2B” value on panel of 442 kinases [2] is reported as 100. For the same compound, the “KINOMEscan: HIPK1” value at panel of 442 kinases [3] came to 100.
For `COc1cc(C(=O)N2CCC(N3CCN(C)CC3)CC2)ccc1Nc1ncc2c(n1)N1CCc3cccc(c31)C(=O)N2C` [Compound 24], the “% Ctrl, TAK1” value at panel of 442 kinases [1] worked out at 100 % Ctrl. The “KINOMEscan: HIPK1” value on panel of 442 kinases [3] was 52.
As for `COc1cc(C(=O)N2CCC(N3CCN(C)CC3)CC2)ccc1Nc1ncc2c(n1)N(C)c1ccccc1C(=O)N2C` [15 (LRRK2-IN-1)], the “% Ctrl, TAK1” value at panel of 442 kinases [1] was 98 % Ctrl. For the same compound, the “KINOMEscan: ACVR2B” value on panel of 442 kinases [2] is on record as 100. Moreover, the “KINOMEscan: HIPK1” value on panel of 442 kinases [3] is on record as 100.
Take `COc1cc(C(=O)N2CCC(N3CCN(C)CC3)CC2)ccc1Nc1ncc2c(n1)N(C1CCCC1)c1ccccc1C(=O)N2C` [Compound 25, 11-cyclopentyl-2-((2-methoxy-4-(4-(4-methylpiperazin-1-yl)piperidine-1-carbonyl)phenyl)amino)-5-methyl-5H-benzo[e]pyrimido[5,4-b][1,4]diazepin-6(11H)-one]: the “% Ctrl, TAK1” value at panel of 442 kinases [1] is given as 100 % Ctrl. Also, on panel of 442 kinases [2], the “KINOMEscan: ACVR2B” value was 91. Also, the “KINOMEscan: HIPK1” value on panel of 442 kinases [3] is given as 100.
